Entries after “also recorded” stand apart in the source; their conditions may differ.
Key:
[1] = system: α9-nAChR promoter; test: α9-nAChR promoter luciferase activity assay in MCF-7 cells; type: cell-based, human; conditions: EGCG 10 μM 24 h pretreatment, then Nic or E2 24 h
Method: All α9-nAChR promoter—luciferase gene fusions were made in the pGL3-Basic vector (Promega, Madison, Wis., USA) by introducing the appropriate α9-nAChR promoter fragments into the polylinker upstream of the luciferase gene. These fragments were generated with restriction enzymes and cloned directly into pGL3-Basic or subcloned first in pBluescript and then transferred to pGL3-Basic. Deletion analysis of the most promoter-proximal region was performed by generating either appropriate restriction enzyme fragments or PCR fragments with suitable sense oligonucleotides and an antisense primer (5′-[…]-3′ (SEQ ID NO:1)) that anneals to the pGL3-Basic vector downstream of the site of transcription initiation.
MCF-7 cells were plated in 6-well plates. Cells were transiently cotransfected the next day with 1.5 μg of PGL3-Basic plasmid containing the full-length α9-nAChR promoter and 0.1 μg of the RLTK plasmid (Promega) using an MP-100 microporator (Digital Bio), according to the manufacturer's instructions. After incubation for 24 h, the medium was changed to culture medium containing 10% FBS or 0.1% FB S with or without Nic. Cells were lysed 24 h later with 1× Reporter Lysis Buffer (Promega) and stored frozen at −20° C. overnight. Luciferase activity was determined by testing 50 μL of the cell lysate and 50 μL of the Luciferase Assay Reagent (Promega) using a HIDEX Chameleon Microplate Reader. Relative luciferase units were normalized to renilla luciferase from the same cell lysates. Each luciferase assay experiment was performed three times.

[2] = system: MCF-10A cells; test: Cell proliferation (MTT assay) in normal MCF-10A cells; type: cell-based, human; conditions: Nic 10 μM or EGCG 10-25 μM
Method: Human mammary gland epithelial adenocarcinomas (MCF7, MDA-MB-231, AU-565, MDA-MB-453, and BT-483) and normal human mammary gland epithelial fibrocystic cell lines (MCF-10A and HBL-100) were purchased from ATCC (American Type Culture Collection, Manassas, Va., USA). MCF-7, MDA-MB-231, and MDA-MB-453 cells were maintained in DMEM, whereas BT-483 cells were maintained in RPMI-1640. Cell growth, proliferation, and viability were determined by the 3-(4,5-dimethylthiazol-2-yl)-2,5-diphenyltetrazolium (MTT) assay. The formazan product was measured by absorbance at 540 nm.

[3] = biological target: T1, α9-nAChR (Homo sapiens, UniProt Q9UGM1); test: [^3H]-Nic equilibrium binding in MCF-7 cells
T1 construct: breast cancer cell proliferation induced by Nic could be mediated through endogenous α9-nAChR; endogenous in cells; host or cells: MCF-7 cell monolayers: wild type, scramble control (Sc) and α9-nAChR siRNA knockdown (Si) clones
Method: L-(−)-[N-methyl-^3H]-Nic ([^3[H]-Nic) (71-75 Ci/mmol) was purchased from Dupont/NEN Research Products (Boston, Mass., USA), and free-base Nic (99% pure) was purchased from The Eastman Kodak (Rochester, N.Y., USA). To study the uptake of [^3H]-Nic in MCF-7 cell monolayers (2×10^6 cells/well), cells were rinsed three times with a buffer containing 140 mM NaCl, 5.4 mM KCl, 1.8 mM CaCl2, 0.8 mM Mg504, 5 mM glucose, and 25 mM Hepes/Tris (pH 7.4). […] Nonspecific binding was determined by the addition of […] Nic. Total binding was evaluated for each concentration in quintuplicate, and blanks were determined in triplicate. The uptake of [^3H]-Nic was halted by aspiration of the uptake medium and washing of the wells three times with ice-cold buffer. The cells were lysed in 1 mL of 0.5% Triton X-100, and aliquots of the cell lysates were transferred to scintillation vials to determine the incorporated radioactivity by scintillation counting. Inhibition studies were carried out by adding various concentrations of unlabeled compounds to the uptake medium.

T1 sequence (Q9UGM1 26-479 limits assumed): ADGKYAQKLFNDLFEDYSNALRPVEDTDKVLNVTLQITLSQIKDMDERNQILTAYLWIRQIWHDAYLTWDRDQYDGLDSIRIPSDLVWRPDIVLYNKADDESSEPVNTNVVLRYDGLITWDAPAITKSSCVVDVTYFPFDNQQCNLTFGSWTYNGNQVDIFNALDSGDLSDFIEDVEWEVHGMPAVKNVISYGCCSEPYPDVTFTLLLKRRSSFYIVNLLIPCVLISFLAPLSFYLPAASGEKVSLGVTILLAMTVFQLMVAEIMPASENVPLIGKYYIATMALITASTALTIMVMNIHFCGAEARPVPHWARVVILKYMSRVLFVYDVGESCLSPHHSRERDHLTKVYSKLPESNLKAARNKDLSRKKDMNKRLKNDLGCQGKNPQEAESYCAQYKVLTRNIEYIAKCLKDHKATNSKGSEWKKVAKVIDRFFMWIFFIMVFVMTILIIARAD

## O=C(O[C@@H]1Cc2c(O)cc(O)cc2O[C@@H]1c1cc(O)c(O)c(O)c1)c1cc(O)c(O)c(O)c1 [EGCG, (−)-epigallocatechin-3-gallate]
[1]
  Nic- and E2-induced α9-nAChR promoter luciferase activity: significantly reduces
[2]
  cell number in normal breast epithelial cells: no changes
[3]; EGCG 10 μM 24 h pretreatment
  [^3H]-Nic binding activity in α9-nAChR (Si) cells compared with Sc or wild-type cells: profoundly inhibited
[3]; EGCG pretreatment
  inhibition of [^3H]-Nic binding activity in (Si) cells compared with Sc or wild-type cells: > 90%
[3]; MCF-7, EGCG 24 h, wash, then [^3H]-Nic 24 h
  [^3H]-Nic binding activity, EGCG pretreated then washed group: not significantly inhibited
[3]; MCF-7, [^3H]-Nic + EGCG cotreatment 24 h
  [^3H]-Nic binding activity, EGCG cotreated group: not significantly inhibited
[3]; wild-type MCF-7, EGCG 10 μM 24 h, then [^3H]-Nic cotreatment 24 h
  relative [^3H]-Nic binding activity, EGCG pretreated group: significantly blocked; also recorded: profoundly inhibited

Reference: US20120208873A1, “TEA POLYPHENOLS PRODUCTS FOR CEASING SMOKING AND TREATING AND/OR PREVENTING NICOTINE OR NICOTINE-DERIVED COMPOUNDS OR ESTROGEN INDUCED BREAST CANCER” (priority 2011, published 2012)
